Article PMC9866218, “Characterization and Chemical Synthesis of Cm39 (α-KTx 4.8): A Scorpion Toxin That Inhibits Voltage-Gated K^+ Channel KV1.2 and Small- and Intermediate-Conductance Ca^2+-Activated K^+ Channels KCa2.2 and KCa3.1” (Toxins, 2023)
“Also recorded” adds a separate entry of the source.

Target: T1, hKV1.2 (Homo sapiens, UniProt P16389)
T1 construct: GFP (vector pCMV6-AC-GFP); host or cells: CHO cells, transient transfection
Assay: Conductance-voltage (G-V) relationship of KV1.2
Type: cell-based
Protocol: Mostly, scorpion toxins inhibit the KV channels by physically occluding the pore region of the channel thereby preventing the flow of K^+ ions. […] To confirm the blocking mechanism of Cm39 we determined the conductance–voltage (G–V) relationship for KV1.2 in the absence and presence of the toxin. Whole-cell currents of KV1.2 expressing CHO cells were recorded by applying the 300 ms long depolarization pulses ranging from −70 to +80 in 10 mV steps from Vh of −120 mV. […] The conductance values were calculated for each voltage step, normalized to the maximum conductance and plotted as a function of membrane potential (Em) as shown in Figure 4E. […] The midpoint voltage (V50) of the G–V relationship in the control solution (−1.0 ± 4.8, n = 4) was statistically similar to the V50 value at equilibrium block with 65 nM sCm39 (1.6 ± 4.0, n = 4) as shown in Figure 4F.
Those plasmids which lack a fluorescent tag were co-transfected with a plasmid encoding GFP. Transfections were performed at a GFP:channel DNA molar ratio of 1:10 using the Lipofectamine 2000 kit (Invitrogen) according to the manufacturer’s protocol. GFP expressing cells were identified with the Nikon TE 2000U fluorescence microscope (Nikon, Tokyo, Japan) and used for current recordings (~60–70% success rate for co-transfection). Generally, currents were recorded 24 to 48 h post transfection.
For the measurement of KV1.x, mKCa1.1 and NaV1.x currents the extracellular solution was composed of (in mM) 145 NaCl, 5 KCl, 2.5 CaCl2, 1 MgCl2, 10 HEPES and 5.5 glucose, pH 7.35. In the HK-150 and Na^+-free bath solution bath all Na^+ was substituted by K^+ or Choline-Cl, respectively, other ingredients remained unchanged. In the various TEA^+-containing solutions, Na^+ was substituted by tetraethylammonium-Cl in equimolar concentration (Figure 3). The bath solution for KCa2.2 and KCa3.1 consisted of (in mM) 145 L-Aspartic Na^+ salt, 5 KCl, 2.5 CaCl2, 1 MgCl2, 5.5 glucose and 10 HEPES, pH 7.4 and for KV11.1 (in mM) 140 Choline-Cl, 5 KCl, 2 MgCl2, 2 CaCl2, 10 HEPES, 20 glucose and 0.1 CdCl2, pH 7.35. The osmolarity of bath solutions was ranging between 302 to 308 mOsm/L. A total of 0.1 mg/mL bovine serum albumin (BSA, Sigma-Aldrich, Budapest, Hungary) was added to all the bath solutions before the patch-clamp assay to avoid toxin adsorption to the plastic surfaces of the perfusion system. Internal or pipette solution for recording KV1.x and mKCa1.1 currents consisted of (in mM) 140 KF, 2 MgCl2, 1 CaCl2, 11 EGTA and 10 HEPES, pH 7.22. […]
Whole-cell currents were recorded in voltage-clamped cells following standard protocols by using a Multiclamp 700B amplifier connected to a computer with Axon Digidata1440 digitizer and for data acquisition, Clampex 10.7 software was used (Molecular Devices). […]

T1 sequence (P16389 whole entry): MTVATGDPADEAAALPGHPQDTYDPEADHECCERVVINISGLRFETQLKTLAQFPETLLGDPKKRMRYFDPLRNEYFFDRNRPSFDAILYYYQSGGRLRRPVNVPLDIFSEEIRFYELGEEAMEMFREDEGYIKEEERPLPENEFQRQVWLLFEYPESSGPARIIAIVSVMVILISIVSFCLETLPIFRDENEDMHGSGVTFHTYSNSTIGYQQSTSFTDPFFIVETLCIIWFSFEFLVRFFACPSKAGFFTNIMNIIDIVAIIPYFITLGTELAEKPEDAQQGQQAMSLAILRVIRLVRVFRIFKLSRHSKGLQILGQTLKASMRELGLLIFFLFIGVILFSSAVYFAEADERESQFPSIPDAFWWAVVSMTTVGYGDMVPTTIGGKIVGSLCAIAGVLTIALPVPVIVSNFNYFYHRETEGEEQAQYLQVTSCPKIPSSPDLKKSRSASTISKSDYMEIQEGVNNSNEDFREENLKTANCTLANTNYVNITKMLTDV

In the case of `CC[C@H](C)[C@@H]1NC(=O)[C@H](C)NC(=O)[C@H](C)NC(=O)[C@H](CCCCN)NC(=O)[C@@H]2CSSC[C@@H](C(=O)N[C@@H](Cc3ccc(O)cc3)C(=O)N[C@@H](Cc3ccc(O)cc3)C(=O)O)NC(=O)[C@H](CCCCN)NC(=O)[C@@H]3CSSC[C@H](NC(=O)[C@H](CCC(=O)O)NC(=O)[C@H](CO)NC(=O)[C@H](CO)NC(=O)[C@H](CO)NC(=O)[C@H](CCCCN)NC(=O)[C@@H](NC(=O)[C@H](CCCCN)NC(=O)[C@H](Cc4c[nH]cn4)NC(=O)[C@H](CC(N)=O)NC(=O)[C@@H](NC(=O)[C@H](Cc4ccccc4)NC(=O)[C@@H](N)[C@@H](C)O)[C@@H](C)CC)CSSC[C@H](NC(=O)[C@H](CCCCN)NC(=O)CNC(=O)[C@H](CO)NC(=O)[C@H](C)NC(=O)[C@H](CCCNC(=N)N)NC(=O)CNC1=O)C(=O)N[C@@H]([C@@H](C)CC)C(=O)N[C@@H](CC(N)=O)C(=O)N[C@@H](CO)C(=O)N[C@@H]([C@@H](C)O)C(=O)N3)C(=O)N[C@@H](CC(C)C)C(=O)N1CCC[C@H]1C(=O)N[C@@H](C)C(=O)N2` [Cm39], the “effect on voltage dependence of steady-state activation (conductance–voltage relationship)” value (65 nM, CHO cells) is reported as “not altered; also recorded: completely insensitive”, the “effect on voltage dependence of steady-state activation (conductance–voltage relationship)” value (65 nM, CHO cells, listed as sCm9) is reported as “did not affect the voltage dependence of steady-state activation” and the “Mann–Whitney p, V50 with vs without toxin” value (65 nM, ns = not significant) is reported as 0.89. The “midpoint voltage V50 of the G–V relationship” value (equilibrium block with 65 nM sCm39, n = 4, control solution −1.0 ± 4.8, n = 4, CHO cells, ± SEM) was 1.6 ± 4.0.
